Source: patent US5877202A, “Indole derivatives useful to treat estrogen-related neoplasms and disorders” (priority 1996, dated 1999)

Legend:
[1] = tested on: MCF-7 human breast tumor cells; assay: Inhibition of growth of MCF-7 human breast tumor cells; format: cell-based; conditions: MCF7, MCF-7 cells, medium with 0.001 mg/ml insulin
[2] = tested on: tamoxifen-resistant LY-2 cells; assay: Inhibition of growth of tamoxifen-resistant LY-2 cells; format: cell-based; conditions: medium with 0.001 mg/ml insulin
MCF-7 tumors = assay: Inhibition of growth of MCF-7 tumors implanted in nu/nu mice; format: in vivo, female nu/nu mice; conditions: for tumor volume: n = 5, in mm³
GAPDH mRNA = GAPDH mRNA levels in treated MCF-7 human breast tumor cells (positive control probe); format: cell-based; conditions: 30 μM, 24 hr;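 also: Phosphoimager intensity of radioactive mRNA bands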
Method: After treatment with 30 μM drug for 24 hr, total RNA is isolated according to the guanidinium isothiocyanate method using an RNA preparation kit from 5 Prime-3 Prime, Inc., following the manufacturer's instructions. The RNA is separated by formaldehyde gel electrophoresis and transferred to a nylon membrane.

CCCCN(C)C(=O)CCCCCCCNC(=O)Cc1c(C)n(C(=O)c2ccc(Cl)cc2)c2ccc(O)cc12 [MDL 101,906, 8-[[5-Hydroxy-1-(4-chlorobenzoyl)-2-methyl-1H-indol-3-yl]-acetylamino]-octanoic acid methyl-butyl-amide]
IC50 [1]: 3.8 µM | IC50 [2]: 4.7 µM | tumor volume (MCF-7 tumors; 10 mg/kg i.p., day 14 after tumor implantation): 49 ± 18 | tumor volume (MCF-7 tumors; 10 mg/kg i.p., day 22 after tumor implantation): 111 ± 36 | tumor volume (MCF-7 tumors; 10 mg/kg i.p., day 29 after tumor implantation): 155 ± 43 | tumor volume (MCF-7 tumors; 10 mg/kg i.p., day 36 after tumor implantation): 255 ± 70 | tumor volume (MCF-7 tumors; 20 mg/kg i.p., day 14 after tumor implantation): 58 ± 9 | tumor volume (MCF-7 tumors; 20 mg/kg i.p., day 22 after tumor implantation): 140 ± 16 | tumor volume (MCF-7 tumors; 20 mg/kg i.p., day 29 after tumor implantation): 197 ± 30 | tumor volume (MCF-7 tumors; 20 mg/kg i.p., day 36 after tumor implantation): 282 ± 38 | tumor volume (MCF-7 tumors; 50 mg/kg i.p., day 14 after tumor implantation): 77 ± 14 | tumor volume (MCF-7 tumors; 50 mg/kg i.p., day 22 after tumor implantation): 143 ± 13 | tumor volume (MCF-7 tumors; 50 mg/kg i.p., day 29 after tumor implantation): 178 ± 53 | tumor volume (MCF-7 tumors; 50 mg/kg i.p., day 36 after tumor implantation): 291 ± 79 | tumor volume (MCF-7 tumors; 100 mg/kg i.p., day 14 after tumor implantation): 56 ± 10 | tumor volume (MCF-7 tumors; 100 mg/kg i.p., day 22 after tumor implantation): 81 ± 16 | tumor volume (MCF-7 tumors; 100 mg/kg i.p., day 29 after tumor implantation): 110 ± 24 | tumor volume (MCF-7 tumors; 100 mg/kg i.p., day 36 after tumor implantation): 170 ± 41 | tumor volume over time, dose dependence (MCF-7 tumors; 10 to 100 mg/kg i.p.): dose-dependent decrease in the tumor volume over time | decrease in tumor volume over control (MCF-7 tumors; highest dose (100 mg/kg), 36 days after tumor implantation): 55% | size of the tumors compared to control mice (MCF-7 tumors; intraperitoneal injections, suspension in 20% DMSO/water): reduced the size of the tumors compared to control mice | GAPDH mRNA band intensity (GAPDH mRNA; replicate 1): 5,227 | GAPDH mRNA band intensity (GAPDH mRNA; replicate 2): 5,077
